# How the values were obtained:
# [1] = species on record: Homo sapiens; test: Selectivity index, ratio of IC50 for human ERG expressed in HEK293 cells by PatchLiner assay to IC50 for PHD2 (unknown origin) by O-phenyl enediamine(OPD) based fluorescence assay; format: cell-based
# [2] = Half-life in rat liver microsome at 1 uM preincubated for 5 mins followed by NADPH addition measured up to 120 mins by LC-MS/MS analysis; format: ADME; conditions: liver microsomes, time <=125 min
# [3] = Nephrotoxicity in Sprague-Dawley rat assessed as change in creatinine level in blood at 15 to 200 mg/kg, po administered every alternate days for 2 weeks measured on day 14; format: toxicity, organism-based; conditions: in vivo, 336 h, dose 15-200 mg/kg, time 14 day
# [4] = Hepatotoxicity in male Sprague-Dawley rat assessed as change in alanine aminotransferase level in blood at 15 to 200 mg/kg, po administered every alternate days for 2 weeks measured on day 14; format: toxicity, organism-based; conditions: in vivo, 336 h, dose 15-200 mg/kg, time 14 day
# [5] = AUC (0 to infinity) in Beagle dog at 0.5 mg/kg, iv by LC-MS/MS analysis; format: ADME, organism-based, Canis lupus familiaris; design: time infinity, route intravenous, dose 0.5 mg/kg; conditions: in vivo
# [6] = Genotoxicity in Salmonella typhimurium TA98 at 62.5 to 1000 ug incubated for 48 to 50 hrs in absence of S9 fraction by Ames test; format: toxicity, Salmonella enterica subsp. enterica serovar Typhimurium; conditions: in vivo; dose 62.5-1000 µg, time 48-50 hrs
# [7] = AUC (0 to infinity) in Sprague-Dawley rat at 2 mg/kg, ig by LC-MS/MS analysis; format: ADME, organism-based; design: time infinity, route […], dose 2 mg/kg; conditions: in vivo, po
# [8] = Clearance in Beagle dog at 0.5 mg/kg, iv by LC-MS/MS analysis; format: ADME, organism-based, Canis lupus familiaris; conditions: in vivo
# [9] = Clearance in Sprague-Dawley rat at 2 mg/kg, ig by LC-MS/MS analysis; format: ADME, organism-based; conditions: in vivo, po
# [10] = target: T1, Egl nine homolog 1 (Homo sapiens, UniProt Q9GZT9); test: Inhibition of PHD2 in human MCF7 cells assessed as upregulation of HIFalpha expression at 25 uM incubated for 24 hrs by firefly/renilla luciferase reporter gene assay relative to control; format: cell-based
# [11] = Half-life in Sprague-Dawley rat at 2 mg/kg, ig by LC-MS/MS analysis; format: ADME, organism-based; conditions: in vivo, po
# [12] = Hepatotoxicity in male Sprague-Dawley rat assessed as change in aspartate aminotransferase level in blood at 200 mg/kg, po administered every alternate days for 2 weeks measured on day 14; format: toxicity, organism-based; conditions: in vivo, 336 h, time 14 day
# [13] = tested on: Mus musculus; test: Antianemic activity in cisplatin-induced C57BL/6 mouse anemia model assessed as improvement in anemia at 25 mg/kg, po administered every other day for 1 month; format: functional; conditions: time 1 months, 730 h
# [14] = Apparent volume of distribution in Sprague-Dawley rat at 1 mg/kg, iv by LC-MS/MS analysis; format: ADME, organism-based; conditions: in vivo, read-out: Vz
# [15] = MRT (0 to infinity) in Sprague-Dawley rat at 1 mg/kg, iv by LC-MS/MS analysis; format: ADME, organism-based; conditions: in vivo
# [16] = MRT (0 to infinity) in Sprague-Dawley rat at 2 mg/kg, ig by LC-MS/MS analysis; format: ADME, organism-based; conditions: in vivo, po
# [17] = Acute toxicity in female Sprague-Dawley rat assessed as change in ratio of uterus with cervix to body weight at 15 to 200 mg/kg, po administered every alternate days for 2 weeks measured on day 14; format: organism-based; conditions: in vivo, 336 h, dose 15-200 mg/kg, time 14 day
# [18] = Genotoxicity in Salmonella typhimurium TA100 at 62.5 to 1000 ug incubated for 48 to 50 hrs in presence of S9 fraction by Ames test; format: toxicity, subcellular, Salmonella enterica subsp. enterica serovar Typhimurium; conditions: dose 62.5-1000 µg, time 48-50 hrs
# [19] = AUC (0 to t) in Sprague-Dawley rat at 2 mg/kg, ig by LC-MS/MS analysis; format: ADME, organism-based; design: dose 2 mg/kg; conditions: in vivo, po
# [20] = Oral bioavailability in Sprague-Dawley rat at 2 mg/kg by LC-MS/MS analysis; format: ADME, organism-based; conditions: in vivo
# [21] = target: T1, Egl nine homolog 1; test: Inhibition of PHD2 in human MCF7 cells assessed as upregulation of HIFalpha expression at 50 uM incubated for 24 hrs by firefly/renilla luciferase reporter gene assay relative to control; format: cell-based
# [22] = MRT (0 to infinity) in Beagle dog at 2 mg/kg, ig by LC-MS/MS analysis; format: ADME, organism-based, Canis lupus familiaris; conditions: in vivo, po
# [23] = species on record: Homo sapiens; test: Selectivity index, ratio of IC50 for PHD1 (unknown origin) by O-phenyl enediamine(OPD) based fluorescence assay to IC50 for PHD2 (unknown origin) by O-phenyl enediamine(OPD) based fluorescence assay
# [24] = Acute toxicity in Sprague-Dawley rat assessed as change in growth at 15 to 200 mg/kg, po administered every alternate days for 14 days; format: organism-based; conditions: in vivo, 336 h, dose 15-200 mg/kg, time 14 day
# [25] = tested on: L02; test: Cytotoxicity against human L02 cells assessed as reduction in cell viability at 10 to 100 uM incubated for 72 hrs by MTT assay; format: cell-based; conditions: l02, 72 h, dose 10-100 µM
# [26] = species on record: Homo sapiens; test: Selectivity index, ratio of IC50 for PHD3 (unknown origin) to IC50 for PHD2 (unknown origin) by O-phenyl enediamine(OPD) based fluorescence assay
# [27] = Half-life in human L02 cells at 100 uM incubated up to 120 mins by LC-MS/MS analysis; format: ADME, cell-based
# [28] = Intrinsic clearance in human liver microsome at 1 uM preincubated for 5 mins followed by NADPH addition measured up to 120 mins by LC-MS/MS analysis; format: ADME; conditions: microsomes, 2 h, time <=125 min
# [29] = Acute toxicity in Sprague-Dawley rat assessed as change in ratio of heart to body weight at 15 to 200 mg/kg, po administered every alternate days for 2 weeks measured on day 14; format: organism-based; conditions: in vivo, 336 h, dose 15-200 mg/kg, time 14 day
# [30] = target: T1, Egl nine homolog 1; test: Inhibition of PHD2 in human Hep3B cells assessed as upregulation of EPO mRNA expression at 50 uM measured after 10 hrs by Trizol reagent based qRT-PCR analysis relative to control; format: cell-based
# [31] = Acute toxicity in female Sprague-Dawley rat assessed as change in ratio of ovary to body weight at 15 to 200 mg/kg, po administered every alternate days for 2 weeks measured on day 14; format: organism-based; conditions: in vivo, 336 h, dose 15-200 mg/kg, time 14 day
# [32] = Genotoxicity in Salmonella typhimurium TA98 at 62.5 to 1000 ug incubated for 48 to 50 hrs in presence of S9 fraction by Ames test; format: toxicity, subcellular, Salmonella enterica subsp. enterica serovar Typhimurium; conditions: dose 62.5-1000 µg, time 48-50 hrs
# [33] = tested on: Mus musculus; test: Induction of erythropoiesis in po dosed C57BL/6 mouse assessed as increase in red blood cell count administered thrice for 3 days measured 4 hrs post last dose; format: functional, organism-based; conditions: dose mg/kg 5-50, time 72.0 hrs
# [34] = Half-life in human liver microsome at 1 uM preincubated for 5 mins followed by NADPH addition measured up to 120 mins by LC-MS/MS analysis; format: ADME; conditions: liver microsomes, time <=125 min
# [35] = Oral bioavailability in Beagle dog at 2 mg/kg by LC-MS/MS analysis; format: ADME, organism-based, Canis lupus familiaris; conditions: in vivo
# [36] = Half-life in Beagle dog at 0.5 mg/kg, iv by LC-MS/MS analysis; format: ADME, organism-based, Canis lupus familiaris; conditions: in vivo
# [37] = Hepatotoxicity in male Sprague-Dawley rat assessed as change in globulin level at 15 to 200 mg/kg, po administered every alternate days for 2 weeks measured on day 14; format: toxicity, organism-based; conditions: in vivo, 336 h, dose 15-200 mg/kg, time 14 day
# [38] = Acute toxicity in male Sprague-Dawley rat assessed as change in ratio of testis to body weight at 15 to 200 mg/kg, po administered every alternate days for 2 weeks measured on day 14; format: organism-based; conditions: in vivo, 336 h, dose 15-200 mg/kg, time 14 day
# T1 sequence (Q9GZT9 2-426 limits assumed): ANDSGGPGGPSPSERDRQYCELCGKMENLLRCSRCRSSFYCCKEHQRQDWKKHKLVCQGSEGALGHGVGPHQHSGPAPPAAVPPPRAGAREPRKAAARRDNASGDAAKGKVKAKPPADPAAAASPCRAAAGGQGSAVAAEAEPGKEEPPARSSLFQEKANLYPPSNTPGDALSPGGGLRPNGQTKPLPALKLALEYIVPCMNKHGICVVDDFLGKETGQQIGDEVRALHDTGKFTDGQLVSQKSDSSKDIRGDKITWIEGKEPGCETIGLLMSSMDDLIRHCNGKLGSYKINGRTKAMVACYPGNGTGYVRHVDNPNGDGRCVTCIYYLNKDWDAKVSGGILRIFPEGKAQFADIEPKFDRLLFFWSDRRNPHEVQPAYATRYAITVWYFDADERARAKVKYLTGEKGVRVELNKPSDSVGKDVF
structure (smiles),measurement,setting,value
O=C(O)CNC(=O)c1ncc(C#CCOc2ccc(Cl)cc2)cc1O [DDO-3055],Ratio IC50,[1],> 467
same,half-life at 1 µM,[2],> 67 min
same,Activity,[3],Non-Toxic
same,Activity,[4],Non-Toxic
same,AUC(0-inf),[5],636 ng·h/mL
same,Activity,[6],Non-Toxic
same,AUC(0-inf),[7],5420 ng·h/mL
same,clearance,[8],13.2 mL/min/kg
same,CL/F,[9],7.3 mL/min/kg
same,fold change (FC),[10],4
same,half-life,[11],386 min
same,Activity,[12],Toxic
same,Activity,[13],104.5%
same,Vd,[14],2.52 L/kg
same,MRT inf,[15],3.44 h
same,MRT inf,[16],9.43 h
same,Activity,[17],Non-Toxic
same,Activity,[18],Non-Toxic
same,AUC(0-t),[19],4800 ng·h/mL
same,bioavailability,[20],55.7%
same,fold change (FC),[21],7
same,MRT inf,[22],4.69 h
same,Ratio IC50,[23],29
same,Activity,[24],Non-Toxic
same,Activity,[25],Non-Toxic
same,Ratio IC50,[26],2.6
same,half-life at 100 µM,[27],1060 min
same,CLH,[28],< 10 µL/min/kg
same,Activity,[29],Non-Toxic
same,fold change (FC),[30],7
same,Activity,[31],Non-Toxic
same,Activity,[32],Non-Toxic
same,Activity,[33],Dose-dependent effect
same,half-life at 1 µM,[34],> 139 min
same,bioavailability,[35],54%
same,half-life,[36],175 min
same,Activity,[37],Non-Toxic
same,Activity,[38],Non-Toxic

# Reference: ChEMBL document CHEMBL4665751, “Discovery of Clinical Candidate (5-(3-(4-Chlorophenoxy)prop-1-yn-1-yl)-3-hydroxypicolinoyl)glycine, an Orally Bioavailable Prolyl Hydroxylase Inhibitor for the Treatment of Anemia” (J Med Chem, 2020)
